The record followed here is patent US20190048016A1, “SUBSTITUTED BRIDGED UREA ANALOGS AS SIRTUIN MODULATORS” (GlaxoSmithKline Intellectual Property(No.2)Limited, priority 2014, published 2019).

Structures are written as SMILES.

For this assay, the target named is T1, SIRT1 (Homo sapiens, UniProt Q96EB6).
T1 sequence (Q96EB6 1-747): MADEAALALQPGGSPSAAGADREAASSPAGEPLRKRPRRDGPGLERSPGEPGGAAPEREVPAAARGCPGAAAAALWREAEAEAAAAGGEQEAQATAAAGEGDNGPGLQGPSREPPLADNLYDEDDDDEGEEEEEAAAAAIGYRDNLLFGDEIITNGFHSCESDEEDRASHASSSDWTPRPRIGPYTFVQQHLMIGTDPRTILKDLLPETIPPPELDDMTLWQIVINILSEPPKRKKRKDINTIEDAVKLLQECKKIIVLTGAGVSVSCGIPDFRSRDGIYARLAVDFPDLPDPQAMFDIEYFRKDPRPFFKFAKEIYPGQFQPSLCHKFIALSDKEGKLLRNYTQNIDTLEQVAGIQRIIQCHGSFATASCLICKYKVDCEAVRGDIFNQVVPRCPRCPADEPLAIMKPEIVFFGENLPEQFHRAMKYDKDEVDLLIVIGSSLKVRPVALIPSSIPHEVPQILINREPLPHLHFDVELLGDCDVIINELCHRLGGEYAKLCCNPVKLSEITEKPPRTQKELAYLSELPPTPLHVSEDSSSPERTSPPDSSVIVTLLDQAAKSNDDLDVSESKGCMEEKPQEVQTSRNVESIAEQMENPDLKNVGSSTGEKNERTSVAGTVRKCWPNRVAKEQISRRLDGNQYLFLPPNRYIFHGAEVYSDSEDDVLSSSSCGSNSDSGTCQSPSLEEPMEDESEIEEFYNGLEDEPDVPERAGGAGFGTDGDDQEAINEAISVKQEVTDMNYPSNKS
The assay is described as follows: Trp mass spectrometry assay of SIRT1 activation (deacetylation of Ac-R-H-K-K(Ac)-W-NH2 peptide, OAADPR formation). Format: biochemical. The conditions noted are these: Trp peptide 0.5 μM, 120 μM βNAD+, 10 nM SIRT1, 25 min, 25° C.; for Emax: 25 min, read-out: TRP MAX RESP (percent maximum fold activation relative to control = 100%). The procedure, abridged: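 10 nM His-tagged SIRT1 (E. coli expressed) with 0.5 μM Ac-RHKK(Ac)W-NH2 and 120 μM βNAD+, 25 min at 25° C, HEPES pH 7.5, […]; formic acid stop. OAADPR or deacetylated peptide measured by mass spectrometry; EC1.5 = concentration giving 150% activity versus DMSO control; maximum activation also reported.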

For `O=C(Nc1ccc(OC[C@H](O)CO)nc1)N1c2nc(-c3cccc(C(F)(F)F)c3)c(Cl)cc2N2CCC[C@H]1C2` [Example 79, (9S)-3-chloro-N-(6-((R)-2,3-dihydroxypropoxy)pyridin-3-yl)-2-(3-(trifluoromethyl)phenyl)-8,9-dihydro-6H-5,9-methanopyrido[2,3-b][1,4]diazocine-10(7H)-carboxamide], the Emax was no less than 150% and the “TRP Activity (EC1.5, concentration of compound required to increase SIRT1 activity by 50% over control)” value is “A (EC1.5<1 μM)”. Turning to `O=C(NC1CC1(F)F)c1ccc2c(n1)N(C(=O)Nc1cc(OC[C@H](O)CO)ccn1)[C@H]1CCCN2C1` (single isomer, unassigned) [Example 50], the Emax was no less than 150% and the “TRP Activity (EC1.5, concentration of compound required to increase SIRT1 activity by 50% over control)” value is reported as “A (EC1.5<1 μM)”. For `O=C(Nc1ncc(OC[C@@H](O)CO)cn1)N1c2nc(-c3cccc(C(F)(F)F)c3)c(Cl)cc2N2CCC[C@H]1C2` [Example 92, (9S)-3-chloro-N-(5-((S)-2,3-dihydroxypropoxy)pyrimidin-2-yl)-2-(3-(trifluoromethyl)phenyl)-8,9-dihydro-6H-5,9-methanopyrido[2,3-b][1,4]diazocine-10(7H)-carboxamide], the Emax was no less than 150% and the “TRP Activity (EC1.5, concentration of compound required to increase SIRT1 activity by 50% over control)” value was “A (EC1.5<1 μM)”. With `O=C(NC1CC1)N1c2nc(-c3cccc(C(F)(F)F)c3)c(Cl)cc2N2CCC[C@H]1C2` [Example 71, (9S)-3-chloro-N-cyclopropyl-2-(3-(trifluoromethyl)phenyl)-8,9-dihydro-6H-5,9-methanopyrido[2,3-b][1,4]diazocine-10(7H)-carboxamide], the Emax is no less than 150% and the “TRP Activity (EC1.5, concentration of compound required to increase SIRT1 activity by 50% over control)” value was “A (EC1.5<1 μM)”. Take `Cc1cc(-c2nc3c(cc2Cl)N2CCC[C@@H](C2)N3C(=O)Nc2cccnc2)ccn1` [Example 66, (9S)-3-chloro-2-(2-methylpyridin-4-yl)-N-(pyridin-3-yl)-8,9-dihydro-6H-5,9-methanopyrido[2,3-b][1,4]diazocine-10(7H)-carboxamide]: the Emax was no less than 150%.

With `Cc1ccc2c(NC(=O)N3c4nc(C(=O)NC5CC5)ccc4N4CCC[C@H]3C4)n[nH]c2n1` [Example 42, (9S)-N2-cyclopropyl-N10-(6-methyl-1H-pyrazolo[3,4-b]pyridin-3-yl)-8,9-dihydro-6H-5,9-methanopyrido[2,3-b][1,4]diazocine-2,10(7H)-dicarboxamide], the Emax was no less than 150% and the “TRP Activity (EC1.5, concentration of compound required to increase SIRT1 activity by 50% over control)” value is “A (EC1.5<1 μM)”. Take `O=C(Nc1cncc(OCC(O)CO)n1)N1c2nc(-c3cccc(C(F)(F)F)c3)c(Cl)cc2N2CCC[C@H]1C2` (stereo in doubt) [Example 67, (9S)-3-chloro-N-(6-((R)-2,3-dihydroxypropoxy)pyrazin-2-yl)-2-(3-(trifluoromethyl)phenyl)-8,9-dihydro-6H-5,9-methanopyrido[2,3-b][1,4]diazocine-10(7H)-carboxamide]: the Emax was no less than 150% and the “TRP Activity (EC1.5, concentration of compound required to increase SIRT1 activity by 50% over control)” value is listed as “A (EC1.5<1 μM)”. For `Cc1ncc(-c2ccnc(NC(=O)N3c4nc(C(=O)N[C@H](C)C(F)(F)F)ccc4N4CCC[C@H]3C4)c2)s1` [Example 44, (9S)-N10-(4-(2-methylthiazol-5-yl)pyridin-2-yl)-N2-((R)-1,1,1-trifluoropropan-2-yl)-8,9-dihydro-6H-5,9-methanopyrido[2,3-b][1,4]diazocine-2,10(7H)-dicarboxamide], the Emax was no less than 150% and the “TRP Activity (EC1.5, concentration of compound required to increase SIRT1 activity by 50% over control)” value was “A (EC1.5<1 μM)”. Consider `O=C(Nc1cncc(OC[C@@H](O)CO)c1)N1c2nc(-c3cccc(C(F)(F)F)c3)c(Cl)cc2N2CCC[C@H]1C2` [Example 80, (9S)-3-chloro-N-(5-((S)-2,3-dihydroxypropoxy)pyridin-3-yl)-2-(3-(trifluoromethyl)phenyl)-8,9-dihydro-6H-5,9-methanopyrido[2,3-b][1,4]diazocine-10(7H)-carboxamide], for which the Emax is no less than 150% and the “TRP Activity (EC1.5, concentration of compound required to increase SIRT1 activity by 50% over control)” value is recorded as “A (EC1.5<1 μM)”. Turning to `Cc1cc2c(nc1-c1cccc(C(F)(F)F)c1)N(C(=O)Nc1cc(OC[C@H](O)CO)ccn1)[C@H]1CCCN2C1` [Example 91, (9S)-N-(4-((R)-2,3-dihydroxypropoxy)pyridin-2-yl)-3-methyl-2-(3-(trifluoromethyl)phenyl)-8,9-dihydro-6H-5,9-methanopyrido[2,3-b][1,4]diazocine-10(7H)-carboxamide], the Emax is no less than 150% and the “TRP Activity (EC1.5, concentration of compound required to increase SIRT1 activity by 50% over control)” value is reported as “A (EC1.5<1 μM)”.

On to `CC(F)(F)CNC(=O)c1ccc2c(n1)N(C(=O)Nc1cc(OC[C@H](O)CO)ccn1)[C@H]1CCCN2C1` [Example 35, (9S)-N2-(2,2-difluoropropyl)-N10-(4-((R)-2,3-dihydroxypropoxy)pyridin-2-yl)-8,9-dihydro-6H-5,9-methanopyrido[2,3-b][1,4]diazocine-2,10(7H)-dicarboxamide], for which the Emax is no less than 150% and the “TRP Activity (EC1.5, concentration of compound required to increase SIRT1 activity by 50% over control)” value is “A (EC1.5<1 μM)”. As for `O=C(Nc1cnccn1)N1c2nc(-c3ccnc(C(F)(F)F)c3)ccc2N2CCC[C@H]1C2` [Example 17, (9S)-N-(pyrazin-2-yl)-2-(2-(trifluoromethyl)pyridin-4-yl)-8,9-dihydro-6H-5,9-methanopyrido[2,3-b][1,4]diazocine-10(7H)-carboxamide], the Emax is no less than 150% and the “TRP Activity (EC1.5, concentration of compound required to increase SIRT1 activity by 50% over control)” value is reported as “A (EC1.5<1 μM)”. Consider `O=C(NCC(F)(F)F)c1nc2c(cc1Cl)N1CCC[C@@H](C1)N2C(=O)Nc1ccccn1` [Example 38, (9S)-3-chloro-N10-(pyridin-2-yl)-N2-(2,2,2-trifluoroethyl)-8,9-dihydro-6H-5,9-methanopyrido[2,3-b][1,4]diazocine-2,10(7H)-dicarboxamide], for which the Emax was no less than 150% and the “TRP Activity (EC1.5, concentration of compound required to increase SIRT1 activity by 50% over control)” value is “A (EC1.5<1 μM)”. As to `C[C@@H](NC(=O)c1nc2c(cc1Cl)N1CCC[C@@H](C1)N2C(=O)Nc1ccccn1)C(F)(F)F` [Example 39, (9S)-3-chloro-N10-(pyridin-2-yl)-N2-((R)-1,1,1-trifluoropropan-2-yl)-8,9-dihydro-6H-5,9-methanopyrido[2,3-b][1,4]diazocine-2,10(7H)-dicarboxamide], the Emax was no less than 150% and the “TRP Activity (EC1.5, concentration of compound required to increase SIRT1 activity by 50% over control)” value was “A (EC1.5<1 μM)”.

Turning to `O=C(Nc1ccc(F)cn1)c1cc2c(nc1N1CCCC(C(F)(F)F)C1)N[C@H]1CCCN2C1` (single isomer, unassigned) [Example 58], the Emax was no more than 150%. For the compound `O=C(Nc1ccnc(OC[C@@H](O)CO)c1)N1c2nc(-c3cccc(C(F)(F)F)c3)c(Cl)cc2N2CCC[C@H]1C2` [Example 83, (9S)-3-chloro-N-(2-((S)-2,3-dihydroxypropoxy)pyridin-4-yl)-2-(3-(trifluoromethyl)phenyl)-8,9-dihydro-6H-5,9-methanopyrido[2,3-b][1,4]diazocine-10(7H)-carboxamide], the Emax was no less than 150% and the “TRP Activity (EC1.5, concentration of compound required to increase SIRT1 activity by 50% over control)” value is “A (EC1.5<1 μM)”. As to `Cc1ccc2c(NC(=O)N3c4nc(C(=O)NC5CC5(F)F)ccc4N4CCC[C@H]3C4)n[nH]c2n1` (single isomer, unassigned) [Example 48], the Emax was no less than 150% and the “TRP Activity (EC1.5, concentration of compound required to increase SIRT1 activity by 50% over control)” value was “A (EC1.5<1 μM)”. As for `Cc1cc(-c2ccc3c(n2)N(C(=O)Nc2nc(C)c(C)s2)[C@H]2CCCN3C2)ccn1` [Example 19, (9S)-N-(4,5-dimethylthiazol-2-yl)-2-(2-methylpyridin-4-yl)-8,9-dihydro-6H-5,9-methanopyrido[2,3-b][1,4]diazocine-10(7H)-carboxamide], the Emax was no less than 150% and the “TRP Activity (EC1.5, concentration of compound required to increase SIRT1 activity by 50% over control)” value was “A (EC1.5<1 μM)”. Take `C[C@@H](NC(=O)c1ccc2c(n1)N(C(=O)Nc1cnc(OC[C@H](O)CO)cn1)[C@H]1CCCN2C1)C(F)(F)F` [Example 49, (9S)-N10-(5-((R)-2,3-dihydroxypropoxy)pyrazin-2-yl)-N2-((R)-1,1,1-trifluoropropan-2-yl)-8,9-dihydro-6H-5,9-methanopyrido[2,3-b][1,4]diazocine-2,10(7H)-dicarboxamide]: the Emax is no less than 150% and the “TRP Activity (EC1.5, concentration of compound required to increase SIRT1 activity by 50% over control)” value is reported as “A (EC1.5<1 μM)”.
